{
  "source": "patent US20100004277A1",
  "about": "“COMPOUNDS AND METHODS FOR MODULATING PROTEIN TRAFFICKING” (FoldRx Pharmaceuticals, Inc., priority 2006, published 2010)",
  "note": "Residues, ends and D or L forms follow the SMILES beside them. *: point of attachment. Cbz = O=C(OCc1ccccc1)*",
  "data": [
    {"test_system": "ypt1^ts cells", "assay": "ypt1^ts mutant growth rescue assay (OD600)", "format": "cell-based, yeast", "conditions": "35° C. and 37° C.", "text": "(§1) The yeast mutant cell line ypt1^ts suppresses, in a temperature dependent fashion, the dominant-lethal phenotype of a mutant YPT1 allele (Schmitt et al. (1988) Cell 53:635-47). The yeast mutant cell line ypt1^ts contains an allele of YPT1 that has two point mutations: one that changes an asparagine at position 121 to a isoleucine (N121I) and another that changes an alanine at position 161 to a valine (A161V). The N121I mutation causes dominant lethality by itself, but lethality is suppressed by the second mutation, resulting in a recessive loss of function phenotype at the restrictive temperatures. ypt1^ts cells grow normally at temperatures up to 25° C., but are growth arrested at 37° C. (Id.).\n(§2) Compounds that rescue cells from alpha-synuclein toxicity were screened to assess their ability to restore growth of ypt1^ts cells. The effect of the compounds was measured on ypt1^ts cells cultured at room temperature (permissive temperature), 37° C. (non-permissive temperature), and 35° C. (semi-permissive temperature).\n(§3) To determine if the test compounds could rescue the ypt1^ts mutant phenotype, ypt1^ts cells were grown overnight in synthetic complete (SC) media supplementd with 2% glucose at room temperature. Log phase cells were diluted into SC 2% glucose media to an OD600 of 0.003. 100 μL of this culture was then aliquoted into each well of 96-well flat bottom microtiter plates. 1 μL of the test compounds dissolved in DMSO (at a concentration range from 5 mM-0.005 mM) or of DMSO alone was added to each well (50 uM-0.05 uM final concentration in 1% DMSO). Plates were mixed by vortexing and incubated at 35° C. and 37° C. Compound rescue of the ypt1^ts temperature sensitive defect was assessed by measuring the OD600 (optical density at 600 nm; cell growth) of the cultures. Plates incubated at 35° C. were measured at 24 and 40 hours incubation time while plates grown at 37° C. were measured after 40 hours of incubation.\n(§4) Assays monitoring the rescue of ypt1^ts mutants were performed using a vehicle, a positive control (calcium), active compounds obtained from the alpha-synuclein screen (Cpd. I.1 and Cpd. II.1), alpha-synuclein-active analogs of Cpd. […] I.1 (Cpd. I.4 and Cpd. I.5).", "values": [
      {"compound": "aureobasidin [reference compound]", "rescue of ypt1^ts loss of function / restoring growth of ypt1^ts": "effective"},
      {"compound": "tunicamycin [reference compound]", "rescue of ypt1^ts loss of function / restoring growth of ypt1^ts": "effective"}
    ]},
    {"test_system": "ypt1^ts cells", "assay": "ypt1^ts mutant growth rescue assay (OD600)", "format": "cell-based, yeast", "conditions": "37° C., 40 hours, range 0.05-50 μM; intermediate concentrations", "text": "as §1, §2, §3, §4", "values": [
      {"compound": "CC(C)C[C@@H](C=O)NC(=O)[C@H](CC(C)C)NC(=O)[C@H](CC(C)C)NC(=O)OCc1ccccc1", "note": "[MG132, reference compound] (Cbz-Leu-Leu-Leu-aldehyde)", "rescue of ypt1^ts loss of function": "rescued"}
    ]},
    {"test_system": "sar1^ts mutant yeast strain", "assay": "sar1^ts mutant growth rescue assay (OD600)", "format": "cell-based", "conditions": "35° C., 72 hours, 0.05 to 50 μM", "description": "The sar1st mutant yeast strain (ATCC, Manassas, Va.) carries a temperature sensitive mutant allele of the SAR1 gene, which permits the strain to grow at 25° C., but undergo growth arrest at 35° C. or higher. Inactivation of the mutant Sar1^ts protein at 35° C. prevents the formation of transport vesicles at the ER, causing a block in ER to golgi trafficking (Saito et al. (1998) J. Biochem. (Tokyo) 124(4):816-823).\nTo identify compounds that rescue the sar1^ts mutant phenotype, the mutant strain was first grown at 25° C. in rich media overnight. The strain was then diluted to an OD600 of 0.004 in SC media with 2% glucose, and mixed with various dilutions of test compounds (0.05 to 50 μM) in SC media with 2% glucose. The cells were then incubated at 25° C. or 35° C. for 72 hours. Rescue of the sar1^ts mutant phenotype was scored as an increase in the OD600 (concentration of the yeast cells) cultured in the presence of a test compound as compared to cells cultured cultured in the absence of the test compound.", "values": [
      {"compound": "N/C(=N\\C(=O)CCc1ccco1)Nc1nc2ccccc2o1", "note": "[Cpd. I.6]", "rescue of the sar1^ts mutant phenotype": "rescue"},
      {"compound": "O=C1CC(c2cccc(Cl)c2)c2ccc3c(c2N1)CCC3", "note": "(stereo not shown) [Cpd. II.2]", "rescue of the sar1^ts mutant phenotype": "not detected"},
      {"compound": "COc1ccc(OC)c(C2CC(=O)Nc3c2ccc2ccccc32)c1", "note": "(stereo not shown) [II.12]", "rescue of the sar1^ts mutant phenotype": "not detected"},
      {"compound": "O=C1CC(c2cccc(Cl)c2)c2ccc(-c3ccccc3)cc2N1", "note": "(stereo not shown) [II.27]", "rescue of the sar1^ts mutant phenotype": "not detected"},
      {"compound": "O=C1CC(c2cccc(Cl)c2)c2cc3c4c(cccc4c2N1)CC3", "note": "(stereo not shown) [II.57]", "rescue of the sar1^ts mutant phenotype": "not detected"},
      {"compound": "C#Cc1cccc(C2CC(=O)Nc3c2ccc2c3CCC2)c1", "note": "(stereo not shown) [II.59]", "rescue of the sar1^ts mutant phenotype": "not detected"},
      {"compound": "aureobasidin [reference compound]", "rescue of the sar1^ts mutant phenotype": "not detected"}
    ]},
    {"test_system": "ΔF508 CFTR", "assay": "ΔF508 CFTR stabilization in CFBE cells, western blot", "format": "cell-based", "conditions": "10 μM, 16 hours, 37° C.", "description": "(§5) Selected compounds identified in the ypt1^ts screen were further tested for their ability to stabilize ΔF508 CTFR. CFBE cells, a cell line generated by transformation of cystic fibrosis tracheo-bronchial cells (ΔF508 CTFR homozygous) with SV40 (Bruscia et al. (2002) Gene Ther. 9(11):683-685), were cultured with 10 μM Cpd. I.3, 10 μM Cpd. II.2, or 10 μM VRT-325 for 16 hours at 37° C. (VRT-325 is described in, e.g., Van Goor et al. (2006) Am. J. Physiol. Lung Cell Mol. Physiol. 290:L1117-L1130). A population of cells was also cultured with the dimethyl sulfoxide (DMSO) solvent as a control.\n(§6) Following incubation, cells were lysed, solubilized in Laemmli buffer, and subjected to SDS-PAGE. CFTR protein was visualized by western blotting using an antibody specific for CFTR. Culturing CFBE cells with Cpd. I.3 or Cpd. II.2 increased the amount of cellular ΔF508 CFTR protein (see band “B,” FIG. 3A). Cpd. I.3 and Cpd. […] The effects of Cpd. I.3 or Cpd.\n(§7) Next, to test the effect of different concentrations of Cpd. I.3 and Cpd. II.2 on ΔF508 CFTR, a dose response experiment was performed. CFBE cells were grown at 37° C. for 16 hours in the presence of 1, 2.5, 5, or 10 μM Cpd. I.3 or Cpd. II.2. Following incubation, lysates were prepared from the various treated cell populations, the lysates solubilized in Laemmli buffer, and subjected to SDS-PAGE. The relative amounts of glysosylated (band “C”) and unglycosylated (band “B”) ΔF508 CFTR protein were visualized by western blotting as above (FIGS. 4A and 4C). The band intensities were quantitated by scanning and densitometry. […] I.3 (FIG. 4B) and Cpd. II.2 (FIG. 4D), respectively.", "values": [
      {"compound": "O=C1CC(c2cccc(Cl)c2)c2ccc3c(c2N1)CCC3", "note": "(stereo not shown) [Cpd. II.2]", "effects on stabilizing ΔF508 CFTR compared with VRT-325": "comparable or better"},
      {"compound": "COc1ccc(S(=O)(=O)N2CCN(C(C)c3nc(OC4CCCCC4)c4ccccc4n3)CC2)cc1", "note": "(stereo not shown) [VRT-325, reference compound]", "stabilization of ΔF508 CFTR protein in CFBE cells": "stabilization"}
    ]},
    {"test_system": "ΔF508 CFTR", "assay": "ΔF508 CFTR stabilization in CFBE cells, western blot", "format": "cell-based", "conditions": "10 μM, 16 hours, 37° C., vs DMSO", "description": "as §5, §6, §7", "values": [
      {"compound": "O=C1CC(c2cccc(Cl)c2)c2ccc3c(c2N1)CCC3", "note": "(stereo not shown) [Cpd. II.2]", "amount of cellular ΔF508 CFTR protein (band B)": "increased", "amount of the glycosylated form of ΔF508 CFTR (band C)": "increased"}
    ]},
    {"test_system": "ΔF508 CFTR", "assay": "ΔF508 CFTR stabilization in CFBE cells, western blot", "format": "cell-based", "conditions": "16 hours, 37° C.", "description": "as §5, §6, §7", "units": {"concentration at which efficacy reached a maximum (dose response curves from western blot)": "µM"}, "values": [
      {"compound": "O=C1CC(c2cccc(Cl)c2)c2ccc3c(c2N1)CCC3", "note": "(stereo not shown) [Cpd. II.2]", "concentration at which efficacy reached a maximum (dose response curves from western blot)": "2.5 to 5"}
    ]},
    {"test_system": "ΔF508 CFTR", "assay": "ΔF508 CFTR stabilization in CFBE cells, western blot", "format": "cell-based", "conditions": "all concentrations tested (1-10 μM), 16 hours, 37° C.", "description": "as §5, §6, §7", "values": [
      {"compound": "O=C1CC(c2cccc(Cl)c2)c2ccc3c(c2N1)CCC3", "note": "(stereo not shown) [Cpd. II.2]", "amount of glycosylated and unglycosylated ΔF508 CFTR proteins compared to absence of compound": "increase"}
    ]},
    {"test_system": "ΔF508 CFTR mutant", "assay": "not given", "conditions": "cell-based studies, ΔF508 CFTR mutant; cited from earlier work", "values": [
      {"compound": "CC(C)C[C@H](NC(=O)[C@H](Cc1ccccc1)NC(=O)c1cnccn1)B(O)O", "note": "[bortezomib]", "cellular chloride efflux": "restoring"}
    ]},
    {"test_system": "ΔF508 CFTR mutant", "assay": "not given", "conditions": "cell-based studies; cited from earlier work", "values": [
      {"compound": "CC(C)C[C@H](NC(=O)[C@H](Cc1ccccc1)NC(=O)c1cnccn1)B(O)O", "note": "[bortezomib]", "stabilization of the ΔF508 CFTR mutant, preventing premature degradation": "stabilize"}
    ]},
    {"test_system": "sec23-2^ts mutant yeast strain", "assay": "sec23^ts mutant growth rescue assay (OD600)", "format": "cell-based", "conditions": "30° C., 24 hours, 0.05 to 50 μM", "description": "The sec23-2^ts mutant yeast strain carries a temperature sensitive mutant allele of the SEC23 gene, which permits the strain to grow normally at 25° C., but undergo growth arrest at 30° C. or higher. Inactivation of the Sec23 temperature-sensitive mutant protein at the restrictive temperature prevents the formation of transport vesicles at the ER resulting in a block in ER to golgi trafficking (see, e.g., Hicke et al. (1989) EMBO J. 8(6):1677-1684 and Castillo-Flores et al. (2005) J. Biol. Chem. 280(40):34033-34041).\nTo identify compounds that rescue the sec23^ts mutant phenotype, the mutant strain was first grown at 25° C. in rich media overnight. The strain was then diluted to an OD600 of 0.004 in SC media with 2% glucose, and mixed with various dilutions of test compounds compounds compounds (0.05 to 50 μM) in SC media with 2% glucose. The cells were then incubated at 25° C. or 30° C. for 24 hours. Rescue of the sec23^ts mutant phenotype was scored as an increase in the OD600 of cells cultured in the presence of the a compound as compared to cells cultured in the absence of the test compound.", "values": [
      {"compound": "N/C(=N\\C(=O)CCc1ccco1)Nc1nc2ccccc2o1", "note": "[Cpd. I.6]", "rescue of the sec23^ts mutant phenotype": "not detected"},
      {"compound": "O=C1CC(c2cccc(Cl)c2)c2ccc3c(c2N1)CCC3", "note": "(stereo not shown) [Cpd. II.2]", "rescue of the sec23^ts mutant phenotype": "not detected"},
      {"compound": "COc1ccc(OC)c(C2CC(=O)Nc3c2ccc2ccccc32)c1", "note": "(stereo not shown) [II.12]", "rescue of the sec23^ts mutant phenotype": "not detected"},
      {"compound": "O=C1CC(c2cccc(Cl)c2)c2ccc(-c3ccccc3)cc2N1", "note": "(stereo not shown) [II.27]", "rescue of the sec23^ts mutant phenotype": "not detected"},
      {"compound": "O=C1CC(c2cccc(Cl)c2)c2cc3c4c(cccc4c2N1)CC3", "note": "(stereo not shown) [II.57]", "rescue of the sec23^ts mutant phenotype": "not detected"},
      {"compound": "C#Cc1cccc(C2CC(=O)Nc3c2ccc2c3CCC2)c1", "note": "(stereo not shown) [II.59]", "rescue of the sec23^ts mutant phenotype": "not detected"},
      {"compound": "aureobasidin [reference compound]", "rescue of the sec23^ts mutant phenotype": "not detected"}
    ]}
  ]
}
